# In patent US20220168298A1, “CANCER TREATMENT” (Janssen Pharmaceutica NV, priority 2019, published 2022):
# Read-outs that look alike come from different tables or passages of the source.
# [1] = Regimen 2 6 mg continuous (n = 78)
# Protocol: Study treatment is administered on 28-day cycles. Prior to interim analysis 1, there were 2 treatment regimens.
# Safety was assessed continuously by the investigator and based on medical review of AE reports and the results of vital sign measurements, physical examinations, clinical laboratory tests, ECOG performance status, and other safety evaluations.
# Safety data are presented for the safety population (N=207, enrolled between May 7, 2015, and Dec. 5, 2017), defined as patients who received at least 1 dose of study treatment.
# An analysis was done on 99 NCT02365597 patients who received the dose regimen of 8 mg/day continuous (pharmacodynamically guided uptitrated to 9 mg/d per serum phosphate as described herein, Regimen 3) to explore efficacy among high-risk patients. […] High-risk patients are defined as patients meeting one or more of the following criteria: • age ≥75 years; • ECOG PS 2 (Eastern Cooperative Oncology Group Performance Status 2; Oken M, Creech R, Tormey D, et al. Toxicity and response criteria of the Eastern Cooperative Oncology Group. Am J Clin Oncol. 1982; 5:649-655) • hemoglobin <10 g/dL; • visceral metastases of the liver, lung and/or bone; • 2 or 3 Bellmunt risk factors (Bellmunt J, Choueiri T K, Fougeray R, et al: Prognostic factors in patients with advanced transitional cell carcinoma of the urothelial tract experiencing treatment failure with platinum-containing regimens.
# Final analysis for NCT02365597 was conducted, per protocol 12 months after the last subject was enrolled.
compound,measurement,setting,value
"COc1cc(OC)cc(N(CCNC(C)C)c2ccc3ncc(-c4cnn(C)c4)nc3c2)c1 [erdafitinib, N-(3,5-dimethoxyphenyl)-N′-(1-methylethyl)-N-[3-(1-methyl-1H-pyrazol-4-yl)quinoxalin-6-yl]ethane-1,2-diamine]","TRAE Nail dystrophy, Grade ≥3",[1],0 n
same,"TRAE Palmar-plantar erythrodysaesthesia syndrome, Grade ≥3",[1],0 n
same,"TRAE Paronychia, Grade ≥3",[1],0 n
same,treatment-related deaths,across all dose regimens (N = 207),no treatment-related deaths
same,treatment-related deaths,"final analysis, 101 patients",no treatment-related deaths
same,CSR events resolved on the data cut-off date,"human, in vivo",63%
same,"CSR events resolved on the data cut-off date, n/N","human, in vivo",17/27
same,CSR events that were Grade 1 or 2,"human, in vivo",85%
same,"CSR events that were Grade 1 or 2, n/N","human, in vivo",23/27
same,Treatment discontinuation rates for adverse events,"human, in vivo",approximately 20%
same,dosage discontinued for CSR,"human, in vivo",3 patients
same,dosage interrupted for CSR,"human, in vivo",8 patients
same,dosage reduced for CSR,"human, in vivo",13 patients
same,"grade 3/4 serious adverse events proportions by subgroup, range","human, in vivo",26.7-36.4%
same,ongoing CSR events that were Grade 1,"human, in vivo",60%
same,"ongoing CSR events that were Grade 1, n/N","human, in vivo",6/10
same,patients reporting retinopathy,"human, in vivo",2 patients
same,"patients reporting retinopathy, grade 2","human, in vivo",1 n
same,"patients reporting retinopathy, grade 3","human, in vivo",1 n
same,patients with Central serous retinopathy (CSR) events,"human, in vivo",27%
same,"patients with Central serous retinopathy (CSR) events, n/N","human, in vivo",27/101
